SMILES strings stand for the structures. Active and inactive are the calls of the source. The rule behind the calls is not given here.

We go through four molecules from ChEMBL document CHEMBL5357029, “Informatics and Computational Approaches for the Discovery and Optimization of Natural Product-Inspired Inhibitors of the SARS-CoV-2 2'-O-Methyltransferase” (J Nat Prod, 2024).

The nature of series [1]: Inhibition of SARS-CoV-2 nsp10 (1 to 139 residues)/nsp16 (1 to 298 residues) expressed in Escherichia coli BL21(DE3)RIL cells using RNA and [3H]SAM as substrate incubated for 1 hrs by SPA-based assay. The arrangement: species or system Severe acute respiratory syndrome coronavirus 2.
In series [2] the test system is Severe acute respiratory syndrome coronavirus 2. Put plainly: Inhibition of SARS-CoV-2 nsp10/nsp16 2'-O-methyltransferase activity expressed in NiCo21 (DE3) cells using m7GpppAUUAA and S-adenosylmethionine as substrate at 10 uM incubated for 25 mins by luminescence based MTase Glo assay.
Series [3] can be described thus: Inhibition of SARS-CoV-2 nsp10/nsp16 2'-O-methyltransferase activity expressed in NiCo21 (DE3) cells using m7GpppAUUAA and S-adenosylmethionine as substrate by filter binding assay. Details: species or system Severe acute respiratory syndrome coronavirus 2.
Series [4] concerns PBMC. Put plainly: Cytotoxicity against human PBMC cells assessed as inhibition of cell proliferation incubated for 2 to 4 days by CellTiter 96 non-radioactive cell proliferation assay. The format is toxicity, cell-based. As to conditions: time 2-4 day.
For series [5], the system named is Vero. Put plainly: (§1) Cytotoxicity against African green monkey Vero cells assessed as inhibition of cell proliferation incubated for 2 to 4 days by CellTiter 96 non-radioactive cell proliferation assay. The format is toxicity, cell-based. As to conditions: chlorocebus sabaeus, vero; time 2-4 day.
The subject of series [6] is SARS-CoV-2. Put plainly: Antiviral activity against SARS-CoV-2 USA-WA1/2020 infected in african green monkey Vero cells assessed as reduction in viral replication by qRT-PCR analysis. The format is functional, organism-based. The conditions noted are these: Severe acute respiratory syndrome coronavirus 2, USA-WA1/2020, Vero.
The nature of series [7]: as §1. The series is classed as toxicity, cell-based. The conditions noted are these: chlorocebus sabaeus, Vero cells; time 2-4 day.

Turning to `Nc1ncnc2c1ncn2[C@@H]1O[C@H](C[C@@H](N)CC[C@H](N)C(=O)O)[C@@H](O)[C@H]1O` [SINEFUNGIN], in series [1], it took 3.4 µM to reach half-maximal inhibition (IC50). Besides, the inhibition entry in series [2] is “Active”.

`CC1=CC[C@H]2[C@H](C1)c1c(O)cc(/C=C/c3ccc(O)cc3)cc1OC2(C)C`: in series [2], the inhibition result is “Active”. In series [3], the IC50 was 13.3 µM. For the same molecule, the CC50 in series [4] was 53.4 µM; in series [5], 22.3 µM. Further, the EC50 in series [6] amounted to 7 µM.

`CCC(CC)COC(=O)[C@H](C)N[P@](=O)(OC[C@H]1O[C@@](C#N)(c2ccc3c(N)ncnn23)[C@H](O)[C@@H]1O)Oc1ccccc1`: the results for the CC50 in series [4] and in series [7] were 2 µM and above 100 µM, respectively. In addition, the EC50 in series [6] was 2.3 µM.

Consider `CC1=CC[C@H]2[C@H](C1)c1c(/C=C/c3ccc(O)cc3)cc(O)cc1OC2(C)C`, for which the inhibition result in series [2] is “Active”. Further, in series [3], the IC50 worked out at 13.6 µM. In addition, the CC50 in series [4] was 60.4 µM; in series [5], 11.9 µM. The EC50 in series [6] was found to be 4.7 µM.
